Laboratory results taken from publication PMC9186362, “Design and biological evaluation of substituted 5,7-dihydro-6H-indolo[2,3-c]quinolin-6-one as novel selective Haspin inhibitors” (Journal of Enzyme Inhibition and Medicinal Chemistry, 2022).

Experiments:
HsCdk2/Cyc A = HsCdk2/Cyc A (Homo sapiens, UniProt P24941); assay: ADP-Glo kinase assay; format: biochemical, Homo sapiens (Hs); settings: mean n = 2, % of maximum activity of DMSO control, read-out: % Residual activity at 1 μM CDK2
Method: (§1) Kinase activities were determined using the ADP-Glo methodology (ADP-Glo Kinase Assay; Promega) according to the assay described by Nguyen et al.[32] except for MmCLK1. The later was assayed in the following buffer: 10 mM MgCl2, 1 mM EGTA, 1 mM DTT, 25 mM Tris-HCl pH 7.5, 50 µg/ml heparin, 0.15 mg/ml BSA, with 0.027 µg/µl of the following peptide: GRSRSRSRSRSR as substrate.

HsCdk5/p25 = HsCdk5/p25 (Homo sapiens, UniProt Q00535); assay: ADP-Glo kinase assay; format: biochemical, Homo sapiens (Hs); settings: mean n = 2, % of maximum activity of DMSO control, read-out: % Residual activity at 1 μM CDK5
Method: as §1

HsCdk9/Cyc E = HsCdk9/Cyc E (Homo sapiens, UniProt P50750); assay: ADP-Glo kinase assay; format: biochemical, Homo sapiens (Hs); settings: mean n = 2, % of maximum activity of DMSO control, read-out: % Residual activity at 1 μM CDK9
Method: as §1

HsGSK3β = HsGSK3β (Homo sapiens, UniProt P49841); assay: ADP-Glo kinase assay; format: biochemical, Homo sapiens (Hs); settings: mean n = 2, % of maximum activity of DMSO control, read-out: % Residual activity at 1 μM GSK3β
Method: as §1

HsHaspin = target: T1, HsHaspin (Homo sapiens, UniProt Q8TF76); assay: ADP-Glo kinase assay; format: biochemical, Homo sapiens (Hs)
T1 sequence (Q8TF76 1-798): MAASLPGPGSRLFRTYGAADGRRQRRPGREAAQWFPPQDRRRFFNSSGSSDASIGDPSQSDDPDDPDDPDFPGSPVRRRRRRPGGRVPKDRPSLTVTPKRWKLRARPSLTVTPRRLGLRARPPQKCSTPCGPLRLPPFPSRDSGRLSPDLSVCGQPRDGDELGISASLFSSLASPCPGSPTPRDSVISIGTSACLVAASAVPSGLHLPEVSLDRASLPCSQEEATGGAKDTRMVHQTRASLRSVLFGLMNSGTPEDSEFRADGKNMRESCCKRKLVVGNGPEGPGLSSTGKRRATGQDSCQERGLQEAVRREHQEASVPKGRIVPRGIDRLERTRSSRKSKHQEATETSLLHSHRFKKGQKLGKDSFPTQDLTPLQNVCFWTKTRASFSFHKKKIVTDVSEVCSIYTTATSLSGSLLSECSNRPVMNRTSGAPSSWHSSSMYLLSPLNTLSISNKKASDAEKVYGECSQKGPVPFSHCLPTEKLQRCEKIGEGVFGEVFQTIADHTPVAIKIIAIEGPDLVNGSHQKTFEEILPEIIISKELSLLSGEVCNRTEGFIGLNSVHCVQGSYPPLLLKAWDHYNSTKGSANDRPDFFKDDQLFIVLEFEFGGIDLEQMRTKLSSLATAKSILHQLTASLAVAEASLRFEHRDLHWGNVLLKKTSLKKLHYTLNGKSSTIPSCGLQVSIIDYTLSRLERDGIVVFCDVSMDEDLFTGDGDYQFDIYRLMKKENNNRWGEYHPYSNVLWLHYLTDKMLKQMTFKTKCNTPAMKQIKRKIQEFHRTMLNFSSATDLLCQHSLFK
Method: as §1

HsPIM1 = HsPIM1 (Homo sapiens, UniProt P11309); assay: ADP-Glo kinase assay; format: biochemical, Homo sapiens (Hs); settings: mean n = 2, % of maximum activity of DMSO control, read-out: % Residual activity at 1 μM PIM1
Method: as §1

DAPK2 = target: T2, DAPK2 (Homo sapiens, UniProt Q9UIK4); assay: LanthaScreen Binding - Eu-anti-His; settings: read-out: Percentage of inhibition
T2 construct: purchased Life Technologies (SelectScreen service)
Method: (§2) We further evaluated the selectivity profile of compound 55 on a larger panel of kinases (SelectScreen Whole Panel, Life Technologies). The inhibition profile of 55, evaluated at 1 μM, is depicted on a dendrogram on Figure 3 where kinases inhibited by a minimum of 80% are shown. A full list of the kinases tested is shown on Table S1 in supplementary information.

MAP2K1 (MEK1) = target: T3, MAP2K1 (MEK1) (Homo sapiens, UniProt Q02750); assay: LanthaScreen Binding - Eu-anti-His; settings: read-out: Percentage of inhibition
T3 construct: purchased Life Technologies (SelectScreen Whole Panel)
Method: as §2

[1] = target: T4, MAP3K7/MAP3K7IP1 (TAK1-TAB1) (Homo sapiens, UniProt O43318); assay: LanthaScreen Binding - Eu-anti-His; settings: read-out: Percentage of inhibition
T4 construct: purchased Life Technologies (SelectScreen Whole Panel)
Method: as §2

MAPK15 (ERK7) = MAPK15 (ERK7) (Homo sapiens, UniProt Q8TD08); assay: LanthaScreen Binding - Eu-anti-His; settings: read-out: Percentage of inhibition
Method: as §2

STK33 = target: T5, STK33 (Homo sapiens, UniProt Q9BYT3); assay: LanthaScreen Binding - Eu-anti-His; settings: read-out: Percentage of inhibition
T5 construct: purchased Life Technologies (SelectScreen Whole Panel service)
Method: as §2

STK39 (STLK3) = target: T6, STK39 (STLK3) (Homo sapiens, UniProt Q9UEW8); assay: LanthaScreen Binding - Eu-anti-His; settings: read-out: Percentage of inhibition
T6 construct: purchased Life Technologies (SelectScreen service)
Method: as §2

ULK3 = target: T7, ULK3 (Homo sapiens, UniProt Q6PHR2); assay: LanthaScreen Binding - Eu-anti-His; settings: read-out: Percentage of inhibition
T7 construct: purchased Life Technologies (SelectScreen Whole Panel service)
Method: as §2

CDK14 (PFTK1)/cyclin Y = target: T8, CDK14 (PFTK1)/cyclin Y (Homo sapiens, UniProt O94921); assay: LanthaScreen Binding - Eu-anti-GST; settings: read-out: Percentage of inhibition
T8 construct: purchased Life Technologies
Method: as §2

IRAK3 = target: T9, IRAK3 (Homo sapiens, UniProt Q9Y616); assay: LanthaScreen Binding - Eu-anti-GST; settings: read-out: Percentage of inhibition
T9 construct: purchased Life Technologies (SelectScreen service)
Method: as §2

LIMK2 = target: T10, LIMK2 (Homo sapiens, UniProt P53671); assay: LanthaScreen Binding - Eu-anti-GST; settings: read-out: Percentage of inhibition
T10 construct: purchased Life Technologies (SelectScreen Whole Panel service)
Method: as §2

MERTK (cMER) A708S = target: T11, MERTK (cMER) A708S (Homo sapiens, UniProt Q12866, A708S); assay: LanthaScreen Binding - Eu-anti-GST; settings: read-out: Percentage of inhibition
T11 construct: purchased Life Technologies
Method: as §2

MKNK2 (MNK2) = MKNK2 (MNK2) (Homo sapiens, UniProt Q9HBH9); assay: LanthaScreen Binding - Eu-anti-GST; settings: read-out: Percentage of inhibition
Method: as §2

RET V804M = target: T12, RET V804M (Homo sapiens, UniProt P07949, V804M); assay: LanthaScreen Binding - Eu-anti-GST; settings: read-out: Percentage of inhibition
T12 construct: purchased Life Technologies (SelectScreen service)
Method: as §2

SIK3 = SIK3 (Homo sapiens, UniProt Q9Y2K2); assay: LanthaScreen Binding - Eu-anti-GST; settings: read-out: Percentage of inhibition
Method: as §2

STK17B (DRAK2) = target: T13, STK17B (DRAK2) (Homo sapiens, UniProt O94768); assay: LanthaScreen Binding - Eu-anti-GST; settings: ATP Km, read-out: Percentage of inhibition
T13 construct: purchased Life Technologies
Method: as §2

T12 sequence (P07949 29-1114 V804M): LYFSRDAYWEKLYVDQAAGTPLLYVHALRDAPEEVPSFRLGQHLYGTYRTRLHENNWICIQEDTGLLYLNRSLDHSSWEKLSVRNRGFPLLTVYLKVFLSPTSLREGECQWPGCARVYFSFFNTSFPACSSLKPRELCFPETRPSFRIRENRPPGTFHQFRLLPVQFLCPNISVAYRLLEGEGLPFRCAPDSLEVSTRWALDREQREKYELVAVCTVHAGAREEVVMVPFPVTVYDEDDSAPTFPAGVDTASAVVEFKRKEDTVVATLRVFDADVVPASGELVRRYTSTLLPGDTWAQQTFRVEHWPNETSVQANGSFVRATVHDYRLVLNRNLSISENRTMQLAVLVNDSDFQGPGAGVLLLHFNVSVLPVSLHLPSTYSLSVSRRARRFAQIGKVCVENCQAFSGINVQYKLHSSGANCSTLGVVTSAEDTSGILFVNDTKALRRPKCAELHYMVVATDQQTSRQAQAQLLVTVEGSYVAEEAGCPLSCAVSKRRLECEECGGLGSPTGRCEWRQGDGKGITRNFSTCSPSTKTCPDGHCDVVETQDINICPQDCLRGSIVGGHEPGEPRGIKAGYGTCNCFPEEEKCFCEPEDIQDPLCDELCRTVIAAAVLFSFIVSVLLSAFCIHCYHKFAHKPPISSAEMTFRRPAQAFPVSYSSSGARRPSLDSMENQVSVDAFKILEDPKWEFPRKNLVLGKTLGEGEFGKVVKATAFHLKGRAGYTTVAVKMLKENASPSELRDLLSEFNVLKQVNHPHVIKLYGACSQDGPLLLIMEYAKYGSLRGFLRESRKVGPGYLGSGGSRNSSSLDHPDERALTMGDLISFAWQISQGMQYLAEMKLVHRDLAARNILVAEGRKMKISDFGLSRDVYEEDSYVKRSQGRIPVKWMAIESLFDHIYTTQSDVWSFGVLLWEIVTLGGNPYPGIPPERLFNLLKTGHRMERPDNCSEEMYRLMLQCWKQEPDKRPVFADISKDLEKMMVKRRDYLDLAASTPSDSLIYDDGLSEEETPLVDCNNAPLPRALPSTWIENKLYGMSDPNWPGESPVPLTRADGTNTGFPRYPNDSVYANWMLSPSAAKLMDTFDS
MKNK2 (MNK2), sequence (Q9HBH9 whole entry): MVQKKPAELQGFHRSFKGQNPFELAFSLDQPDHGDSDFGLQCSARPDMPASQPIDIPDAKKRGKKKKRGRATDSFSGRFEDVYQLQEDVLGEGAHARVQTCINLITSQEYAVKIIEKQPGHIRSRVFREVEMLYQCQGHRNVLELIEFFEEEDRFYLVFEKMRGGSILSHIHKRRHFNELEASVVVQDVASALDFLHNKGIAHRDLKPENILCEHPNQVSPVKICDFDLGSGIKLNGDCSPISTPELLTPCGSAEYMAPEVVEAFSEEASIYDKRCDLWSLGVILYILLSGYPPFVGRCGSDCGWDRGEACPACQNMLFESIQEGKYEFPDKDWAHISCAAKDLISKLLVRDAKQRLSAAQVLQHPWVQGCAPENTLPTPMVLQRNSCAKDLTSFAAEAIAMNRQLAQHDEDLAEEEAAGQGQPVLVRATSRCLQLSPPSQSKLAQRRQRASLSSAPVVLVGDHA
SIK3, sequence (Q9Y2K2 whole entry): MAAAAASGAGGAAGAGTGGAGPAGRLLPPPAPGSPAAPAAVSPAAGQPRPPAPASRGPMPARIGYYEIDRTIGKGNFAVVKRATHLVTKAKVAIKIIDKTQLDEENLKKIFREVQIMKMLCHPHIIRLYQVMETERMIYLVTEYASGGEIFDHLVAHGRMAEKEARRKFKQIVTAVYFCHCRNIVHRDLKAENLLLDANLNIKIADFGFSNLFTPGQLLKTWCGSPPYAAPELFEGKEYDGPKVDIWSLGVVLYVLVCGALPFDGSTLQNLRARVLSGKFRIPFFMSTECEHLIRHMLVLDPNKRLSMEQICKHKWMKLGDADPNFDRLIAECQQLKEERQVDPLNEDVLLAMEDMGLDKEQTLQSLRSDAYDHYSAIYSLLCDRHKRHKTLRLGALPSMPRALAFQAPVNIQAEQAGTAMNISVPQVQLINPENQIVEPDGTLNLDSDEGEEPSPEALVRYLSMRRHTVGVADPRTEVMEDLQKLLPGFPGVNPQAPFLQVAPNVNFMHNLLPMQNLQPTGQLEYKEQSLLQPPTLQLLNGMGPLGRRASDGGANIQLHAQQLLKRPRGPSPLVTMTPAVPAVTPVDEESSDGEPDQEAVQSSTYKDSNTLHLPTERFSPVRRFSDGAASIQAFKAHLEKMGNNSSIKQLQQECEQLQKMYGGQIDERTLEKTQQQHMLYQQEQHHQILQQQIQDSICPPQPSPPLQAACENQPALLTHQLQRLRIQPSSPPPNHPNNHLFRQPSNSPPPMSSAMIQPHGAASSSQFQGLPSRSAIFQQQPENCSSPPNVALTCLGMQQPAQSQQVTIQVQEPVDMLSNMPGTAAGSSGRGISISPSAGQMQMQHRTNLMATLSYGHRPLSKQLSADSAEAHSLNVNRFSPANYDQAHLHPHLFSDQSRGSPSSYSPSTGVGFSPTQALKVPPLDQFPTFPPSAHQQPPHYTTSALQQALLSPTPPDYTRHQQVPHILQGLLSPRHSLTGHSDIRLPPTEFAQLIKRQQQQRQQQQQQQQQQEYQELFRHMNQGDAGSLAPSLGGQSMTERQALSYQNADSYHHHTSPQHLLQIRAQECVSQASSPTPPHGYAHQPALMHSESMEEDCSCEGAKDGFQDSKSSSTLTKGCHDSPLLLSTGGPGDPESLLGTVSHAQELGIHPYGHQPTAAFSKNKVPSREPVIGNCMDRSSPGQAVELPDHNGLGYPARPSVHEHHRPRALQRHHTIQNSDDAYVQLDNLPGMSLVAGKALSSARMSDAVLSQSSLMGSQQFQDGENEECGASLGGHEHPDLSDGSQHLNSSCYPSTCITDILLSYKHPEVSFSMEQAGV
T5 sequence (Q9BYT3 whole entry): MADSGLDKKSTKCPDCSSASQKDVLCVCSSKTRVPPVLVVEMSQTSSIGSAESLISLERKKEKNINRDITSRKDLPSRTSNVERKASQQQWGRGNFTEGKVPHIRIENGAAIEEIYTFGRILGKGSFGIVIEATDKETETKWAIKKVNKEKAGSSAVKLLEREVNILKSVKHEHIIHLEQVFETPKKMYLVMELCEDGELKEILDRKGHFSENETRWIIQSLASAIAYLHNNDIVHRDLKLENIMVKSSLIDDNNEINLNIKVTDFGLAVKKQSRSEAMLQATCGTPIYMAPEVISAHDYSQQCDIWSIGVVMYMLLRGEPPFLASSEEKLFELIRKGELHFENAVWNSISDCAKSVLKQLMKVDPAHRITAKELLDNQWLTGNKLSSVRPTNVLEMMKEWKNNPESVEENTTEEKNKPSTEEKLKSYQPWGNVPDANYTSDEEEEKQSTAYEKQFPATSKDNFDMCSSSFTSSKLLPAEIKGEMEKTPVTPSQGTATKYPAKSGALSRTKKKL
T9 sequence (Q9Y616 whole entry): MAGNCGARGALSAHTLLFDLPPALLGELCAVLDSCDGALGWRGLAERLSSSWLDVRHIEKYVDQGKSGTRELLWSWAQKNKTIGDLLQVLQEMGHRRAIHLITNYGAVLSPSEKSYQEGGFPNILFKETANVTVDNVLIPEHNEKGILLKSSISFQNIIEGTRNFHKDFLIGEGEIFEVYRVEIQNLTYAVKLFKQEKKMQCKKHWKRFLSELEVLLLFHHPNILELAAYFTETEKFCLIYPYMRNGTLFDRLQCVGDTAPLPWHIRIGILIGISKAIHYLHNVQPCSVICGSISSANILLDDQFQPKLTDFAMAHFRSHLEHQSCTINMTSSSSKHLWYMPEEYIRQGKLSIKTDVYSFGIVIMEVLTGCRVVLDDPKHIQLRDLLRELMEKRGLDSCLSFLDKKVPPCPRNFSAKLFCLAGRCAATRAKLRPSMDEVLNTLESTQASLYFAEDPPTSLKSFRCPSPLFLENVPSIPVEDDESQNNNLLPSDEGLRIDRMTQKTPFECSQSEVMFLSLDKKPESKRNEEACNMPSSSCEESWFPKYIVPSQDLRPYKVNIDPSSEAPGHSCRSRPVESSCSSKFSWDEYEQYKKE
HsGSK3β, sequence (P49841 whole entry): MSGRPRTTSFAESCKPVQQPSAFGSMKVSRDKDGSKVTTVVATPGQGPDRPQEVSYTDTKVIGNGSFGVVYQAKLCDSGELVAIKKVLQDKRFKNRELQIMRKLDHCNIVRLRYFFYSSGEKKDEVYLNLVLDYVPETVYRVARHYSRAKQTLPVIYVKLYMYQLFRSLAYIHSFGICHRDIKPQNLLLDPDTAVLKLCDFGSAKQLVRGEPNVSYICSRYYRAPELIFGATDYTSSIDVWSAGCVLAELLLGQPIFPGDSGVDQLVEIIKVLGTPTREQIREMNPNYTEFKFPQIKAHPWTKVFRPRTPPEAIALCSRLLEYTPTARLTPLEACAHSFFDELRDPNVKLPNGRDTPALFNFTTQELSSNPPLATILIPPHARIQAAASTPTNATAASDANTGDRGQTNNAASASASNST
T4 sequence (O43318 with tags, fused parts or gaps limits assumed): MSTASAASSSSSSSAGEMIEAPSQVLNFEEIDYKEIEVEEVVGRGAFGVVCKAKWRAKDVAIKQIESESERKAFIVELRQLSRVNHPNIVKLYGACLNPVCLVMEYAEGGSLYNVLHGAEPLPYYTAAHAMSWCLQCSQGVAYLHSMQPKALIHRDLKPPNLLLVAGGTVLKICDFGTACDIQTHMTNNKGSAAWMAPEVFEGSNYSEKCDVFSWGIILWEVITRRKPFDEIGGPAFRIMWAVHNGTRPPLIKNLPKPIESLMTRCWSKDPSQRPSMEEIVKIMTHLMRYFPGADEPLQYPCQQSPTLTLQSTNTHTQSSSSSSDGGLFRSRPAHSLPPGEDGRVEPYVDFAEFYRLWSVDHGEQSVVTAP

SMILES: COc1ccc2[nH]c3c(=O)[nH]c4ccc(O)cc4c3c2c1 [Compound 55, 2-Hydroxy-10-methoxy-5,7-dihydro-6H-indolo[2,3-c]quinolin-6-one]
- remaining activity at 1 µM (HsCdk2/Cyc A): 38%
- remaining activity at 1 µM (HsCdk5/p25): 53%
- remaining activity at 1 µM (HsCdk9/Cyc E): 17%
- remaining activity at 1 µM (HsGSK3β): 20%
- remaining activity at 1 µM (HsHaspin; 1 μM, mean n = 2, % of maximum activity of DMSO control, read-out: % Residual activity at 1 μM Haspin): 0%
- IC50 (HsHaspin; dose-response curve, each point in duplicate, read-out: Kinase inhibition (IC50) Haspin): 2 nM
- remaining activity at 1 µM (HsPIM1): 22%
- inhibition at 1 µM (DAPK2): 90%
- inhibition at 1 µM (MAP2K1 (MEK1)): 98%
- inhibition at 1 µM [1]: 98%
- inhibition at 1 µM (MAPK15 (ERK7)): 58%
- inhibition at 1 µM (STK33): 46%
- inhibition at 1 µM (STK39 (STLK3)): 24%
- inhibition at 1 µM (ULK3): 45%
- inhibition at 1 µM (CDK14 (PFTK1)/cyclin Y): 35%
- inhibition at 1 µM (IRAK3): 77%
- inhibition at 1 µM (LIMK2): 11%
- inhibition at 1 µM (MERTK (cMER) A708S): 31%
- inhibition at 1 µM (MKNK2 (MNK2)): 19%
- inhibition at 1 µM (RET V804M): 88%
- inhibition at 1 µM (SIK3): 7%
- inhibition at 1 µM (STK17B (DRAK2)): 93%
